According to ChEMBL document CHEMBL4043199, “Synthesis and optimization of 4,5,6,7-tetrahydrooxazolo[4,5-c]pyridines as potent and orally-active metabotropic glutamate receptor 5 negative allosteric modulators” (Bioorg Med Chem Lett, 2017):
≈ marks a conversion by molar mass, not a printed value. Calls of active or inactive are those of the source. No cut-off for these calls is given here.

How the values were obtained:
[1] = molecular target: Metabotropic glutamate receptor 5 (Homo sapiens, UniProt P41594); experiment: Negative allosteric modulation of human recombinant mGluR5 expressed in HEK293 cells assessed as inhibition of glutamate-induced calcium mobilization preincubated for 2 mins followed glutamate addition measured by fluorescence assay; assay type: functional, cell-based
[2] = Metabolic stability in human hepatic microsomes assessed as parent compound remaining at 1 uM after 30 mins in presence of NADPH by LC-MS/MS analysis relative to control; assay type: ADME, Microsome; settings: liver microsomes, read-out: Stability
[3] = Metabolic stability in rat hepatic microsomes assessed as parent compound remaining at 1 uM after 30 mins in presence of NADPH by LC-MS/MS analysis relative to control; assay type: ADME, Microsome; settings: liver microsomes, read-out: Stability
[4] = Aqueous solubility of compound at pH 7.4; assay type: physicochemical; settings: aqueous medium
Cytochrome P450 1A2 = molecular target: T1, Cytochrome P450 1A2 (Homo sapiens, UniProt P05177); experiment: (§1) Inhibition of CYP1A2 in human liver microsomes using phenacetin as substrate after 10 mins by LC-MS/MS analysis; assay type: ADME
T1 sequence (P05177 whole entry): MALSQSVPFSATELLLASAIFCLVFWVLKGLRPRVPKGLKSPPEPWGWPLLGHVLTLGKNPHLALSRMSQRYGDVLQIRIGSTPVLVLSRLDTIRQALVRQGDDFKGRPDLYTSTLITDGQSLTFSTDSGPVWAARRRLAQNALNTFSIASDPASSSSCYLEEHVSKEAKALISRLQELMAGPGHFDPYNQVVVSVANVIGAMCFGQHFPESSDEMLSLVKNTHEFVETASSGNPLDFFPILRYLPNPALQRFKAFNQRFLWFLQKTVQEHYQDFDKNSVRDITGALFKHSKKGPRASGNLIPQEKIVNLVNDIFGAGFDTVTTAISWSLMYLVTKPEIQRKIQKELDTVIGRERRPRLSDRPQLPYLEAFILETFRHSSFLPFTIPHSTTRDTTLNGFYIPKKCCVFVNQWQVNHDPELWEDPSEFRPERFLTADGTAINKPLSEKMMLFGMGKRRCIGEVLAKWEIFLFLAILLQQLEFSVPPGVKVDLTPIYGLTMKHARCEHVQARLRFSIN

Cytochrome P450 2A6 = molecular target: T2, Cytochrome P450 2A6 (Homo sapiens, UniProt P11509); experiment: (§2) Inhibition of CYP2A6 in human liver microsomes using coumarin as substrate after 10 mins by LC-MS/MS analysis; assay type: ADME
T2 sequence (P11509 whole entry): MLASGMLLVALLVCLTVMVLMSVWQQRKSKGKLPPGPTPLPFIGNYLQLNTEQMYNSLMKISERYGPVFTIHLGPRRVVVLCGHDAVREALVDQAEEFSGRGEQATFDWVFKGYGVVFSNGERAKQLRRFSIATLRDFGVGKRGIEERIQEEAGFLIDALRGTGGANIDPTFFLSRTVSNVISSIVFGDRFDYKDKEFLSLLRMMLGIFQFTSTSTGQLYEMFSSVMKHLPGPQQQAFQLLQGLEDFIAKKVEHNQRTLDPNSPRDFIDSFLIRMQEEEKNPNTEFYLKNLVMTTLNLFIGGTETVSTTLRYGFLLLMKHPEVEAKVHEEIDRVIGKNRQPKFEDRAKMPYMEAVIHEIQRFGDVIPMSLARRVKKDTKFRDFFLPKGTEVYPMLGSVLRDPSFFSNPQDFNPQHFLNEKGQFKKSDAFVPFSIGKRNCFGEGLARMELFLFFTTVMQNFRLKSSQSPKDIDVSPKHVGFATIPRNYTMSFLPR

Cytochrome P450 2C8 = molecular target: T3, Cytochrome P450 2C8 (Homo sapiens, UniProt P10632); experiment: (§3) Inhibition of CYP2C8 in human liver microsomes using amodiaquine as substrate after 10 mins by LC-MS/MS analysis; assay type: ADME
T3 sequence (P10632 whole entry): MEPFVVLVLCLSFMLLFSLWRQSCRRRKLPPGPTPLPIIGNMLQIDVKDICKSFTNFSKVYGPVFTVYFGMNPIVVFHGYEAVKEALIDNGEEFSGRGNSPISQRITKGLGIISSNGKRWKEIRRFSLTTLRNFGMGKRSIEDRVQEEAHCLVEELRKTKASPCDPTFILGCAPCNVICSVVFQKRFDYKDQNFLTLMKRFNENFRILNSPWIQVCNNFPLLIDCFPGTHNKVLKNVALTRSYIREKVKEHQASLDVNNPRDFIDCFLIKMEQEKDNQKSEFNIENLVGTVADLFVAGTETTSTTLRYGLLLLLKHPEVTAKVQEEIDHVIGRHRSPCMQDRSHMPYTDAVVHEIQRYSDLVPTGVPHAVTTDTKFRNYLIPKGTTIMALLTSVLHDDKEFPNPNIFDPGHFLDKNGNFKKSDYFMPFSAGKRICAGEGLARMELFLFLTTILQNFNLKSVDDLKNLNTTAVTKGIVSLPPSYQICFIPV

Cytochrome P450 2C9 = Cytochrome P450 2C9 (Homo sapiens, UniProt P11712); experiment: (§4) Inhibition of CYP2C9 in human liver microsomes using diclofenac as substrate after 10 mins by LC-MS/MS analysis; assay type: ADME
Cytochrome P450 2C19 = Cytochrome P450 2C19 (Homo sapiens, UniProt P33261); experiment: (§5) Inhibition of CYP2C19 in human liver microsomes using (S)-mephenytoin as substrate after 10 mins by LC-MS/MS analysis; assay type: ADME
Cytochrome P450 2D6 = Cytochrome P450 2D6 (Homo sapiens, UniProt P10635); experiment: (§6) Inhibition of CYP2D6 in human liver microsomes using bufuralol as substrate after 10 mins by LC-MS/MS analysis; assay type: ADME
Cytochrome P450 3A4 = Cytochrome P450 3A4 (Homo sapiens, UniProt P08684); experiment: (§7) Inhibition of CYP3A4 in human liver microsomes using midazolam as substrate after 10 mins by LC-MS/MS analysis; assay type: ADME
[5] = […] of CYP450 in human liver microsomes as substrate after 10 mins by LC-MS/MS analysis; assay type: ADME
[6] = Permeability of the compound at pH 7.4 by PAMPA; assay type: physicochemical; settings: read-out: permeability
P-gp = experiment: Substrate activity at P-gp (unknown origin) assessed as efflux ratio; assay type: ADME; settings: human, not told
[7] = molecular target: Voltage-gated inwardly rectifying potassium channel KCNH2 (Homo sapiens, UniProt Q12809); experiment: Inhibition of human ERG
Salmonella typhimurium = experiment: Genotoxicity in Salmonella typhimurium by Ames test; assay type: toxicity; settings: salmonella enterica subsp. enterica serovar typhimurium
[8] = Half life in rat at 0.35 mg/kg, iv; assay type: ADME, organism-based; settings: in vivo
[9] = Half life in monkey at 0.5 mg/kg, iv; assay type: ADME, organism-based, Macaca mulatta; settings: rhesus monkey, in vivo
[10] = Clearance in rat at 0.35 mg/kg, iv after 24 hrs; assay type: ADME, organism-based; settings: in vivo
[11] = Clearance in monkey at 0.5 mg/kg, iv after 24 hrs; assay type: ADME, organism-based, Macaca mulatta; settings: rhesus monkey, in vivo
[12] = Volume of distribution at steady state in rat at 0.35 mg/kg, iv after 24 hrs; assay type: ADME, organism-based; settings: in vivo, read-out: Vdss
[13] = Volume of distribution at steady state in monkey at 0.5 mg/kg, iv after 24 hrs; assay type: ADME, organism-based, Macaca mulatta; settings: rhesus monkey, in vivo, read-out: Vdss
[14] = AUC in rat at 0.35 mg/kg, iv; assay type: ADME, organism-based; settings: in vivo
[15] = AUC in rat at 10 mg/kg, po; assay type: ADME, organism-based; settings: in vivo
[16] = AUC in monkey at 0.5 mg/kg, iv; assay type: ADME, organism-based, Macaca mulatta; settings: rhesus monkey, in vivo
[17] = AUC in monkey at 10 mg/kg, po; assay type: ADME, organism-based, Macaca mulatta; settings: rhesus monkey, in vivo
[18] = Cmax in rat at 10 mg/kg, po; assay type: ADME, organism-based; parameters: dose 10 mg/kg, route oral; settings: in vivo
[19] = Cmax in monkey at 10 mg/kg, po; assay type: ADME, organism-based, Macaca mulatta; parameters: dose 10 mg/kg, route oral; settings: rhesus monkey, in vivo
[20] = Oral bioavailability in rat at 10 mg/kg; assay type: ADME, organism-based; settings: in vivo
[21] = Oral bioavailability in monkey at 10 mg/kg; assay type: ADME, organism-based, Macaca mulatta; settings: rhesus monkey, in vivo
Rattus norvegicus [22] = experiment: Ex vivo receptor occupancy at mGluR5 in Sprague-Dawley rat brain po administered daily for 4 days in presence of [3H]-MPEPy by liquid scintillation counting method; assay type: functional, organism-based
Rattus norvegicus [23] = experiment: Ex vivo receptor occupancy at mGluR5 in Sprague-Dawley rat brain at 0.3 mg/kg, po administered daily for 4 days in presence of [3H]-MPEPy by liquid scintillation counting method relative to control; assay type: functional
Rattus norvegicus [24] = experiment: Antidepressant activity in Wistar rat assessed as decrease in immobility time at 0.3 to 1 mg/kg, po administered 15 mins post training session from day 2 to day 6 measured for 5 mins by forced swimming test; assay type: functional, organism-based
Rattus norvegicus [25] = experiment: Toxicity in rat at 100 mg/kg, po qd administered via gavage for 14 days; assay type: organism-based; settings: in vivo, 336 h
CYP1A2 = molecular target: T4, CYP1A2 (Homo sapiens, UniProt P05177); experiment: as §1; assay type: ADME; settings: human, liver microsomes, probe phenacetin
T4 sequence (P05177 whole entry): T1 sequence (P05177 whole entry)

CYP2A6 = molecular target: T5, CYP2A6 (Homo sapiens, UniProt P11509); experiment: as §2; assay type: ADME; settings: human, liver microsomes, probe coumarin
T5 sequence (P11509 whole entry): T2 sequence (P11509 whole entry)

CYP2C8 = molecular target: T6, CYP2C8 (Homo sapiens, UniProt P10632); experiment: as §3; assay type: ADME; settings: human, liver microsomes, probe amodiaquine
T6 sequence (P10632 whole entry): T3 sequence (P10632 whole entry)

CYP2C9 = CYP2C9 (Homo sapiens, UniProt P11712); experiment: as §4; assay type: ADME; settings: human, liver microsomes, probe diclofenac
CYP2C19 = CYP2C19 (Homo sapiens, UniProt P33261); experiment: as §5; assay type: ADME; settings: human, liver microsomes, probe (S)-mephenytoin
CYP2D6 = CYP2D6 (Homo sapiens, UniProt P10635); experiment: as §6; assay type: ADME; settings: human, liver microsomes, probe bufuralol
CYP3A4 = CYP3A4 (Homo sapiens, UniProt P08684); experiment: as §7; assay type: ADME; settings: human, liver microsomes, probe midazolam
Chain of CYP3A4 (P08684 whole entry): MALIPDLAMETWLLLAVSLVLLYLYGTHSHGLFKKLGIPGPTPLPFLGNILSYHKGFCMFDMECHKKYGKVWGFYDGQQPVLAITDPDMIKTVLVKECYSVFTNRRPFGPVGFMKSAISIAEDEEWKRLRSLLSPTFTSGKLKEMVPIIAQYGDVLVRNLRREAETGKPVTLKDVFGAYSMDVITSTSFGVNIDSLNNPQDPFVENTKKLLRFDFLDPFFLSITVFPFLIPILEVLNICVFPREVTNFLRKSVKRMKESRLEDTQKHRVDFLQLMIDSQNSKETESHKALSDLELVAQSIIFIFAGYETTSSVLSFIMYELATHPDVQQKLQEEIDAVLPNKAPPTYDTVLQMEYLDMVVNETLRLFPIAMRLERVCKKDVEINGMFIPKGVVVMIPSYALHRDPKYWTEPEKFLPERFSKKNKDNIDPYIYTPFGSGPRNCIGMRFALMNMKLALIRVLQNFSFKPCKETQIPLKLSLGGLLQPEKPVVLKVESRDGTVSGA

Chain of Metabotropic glutamate receptor 5 (P41594 whole entry): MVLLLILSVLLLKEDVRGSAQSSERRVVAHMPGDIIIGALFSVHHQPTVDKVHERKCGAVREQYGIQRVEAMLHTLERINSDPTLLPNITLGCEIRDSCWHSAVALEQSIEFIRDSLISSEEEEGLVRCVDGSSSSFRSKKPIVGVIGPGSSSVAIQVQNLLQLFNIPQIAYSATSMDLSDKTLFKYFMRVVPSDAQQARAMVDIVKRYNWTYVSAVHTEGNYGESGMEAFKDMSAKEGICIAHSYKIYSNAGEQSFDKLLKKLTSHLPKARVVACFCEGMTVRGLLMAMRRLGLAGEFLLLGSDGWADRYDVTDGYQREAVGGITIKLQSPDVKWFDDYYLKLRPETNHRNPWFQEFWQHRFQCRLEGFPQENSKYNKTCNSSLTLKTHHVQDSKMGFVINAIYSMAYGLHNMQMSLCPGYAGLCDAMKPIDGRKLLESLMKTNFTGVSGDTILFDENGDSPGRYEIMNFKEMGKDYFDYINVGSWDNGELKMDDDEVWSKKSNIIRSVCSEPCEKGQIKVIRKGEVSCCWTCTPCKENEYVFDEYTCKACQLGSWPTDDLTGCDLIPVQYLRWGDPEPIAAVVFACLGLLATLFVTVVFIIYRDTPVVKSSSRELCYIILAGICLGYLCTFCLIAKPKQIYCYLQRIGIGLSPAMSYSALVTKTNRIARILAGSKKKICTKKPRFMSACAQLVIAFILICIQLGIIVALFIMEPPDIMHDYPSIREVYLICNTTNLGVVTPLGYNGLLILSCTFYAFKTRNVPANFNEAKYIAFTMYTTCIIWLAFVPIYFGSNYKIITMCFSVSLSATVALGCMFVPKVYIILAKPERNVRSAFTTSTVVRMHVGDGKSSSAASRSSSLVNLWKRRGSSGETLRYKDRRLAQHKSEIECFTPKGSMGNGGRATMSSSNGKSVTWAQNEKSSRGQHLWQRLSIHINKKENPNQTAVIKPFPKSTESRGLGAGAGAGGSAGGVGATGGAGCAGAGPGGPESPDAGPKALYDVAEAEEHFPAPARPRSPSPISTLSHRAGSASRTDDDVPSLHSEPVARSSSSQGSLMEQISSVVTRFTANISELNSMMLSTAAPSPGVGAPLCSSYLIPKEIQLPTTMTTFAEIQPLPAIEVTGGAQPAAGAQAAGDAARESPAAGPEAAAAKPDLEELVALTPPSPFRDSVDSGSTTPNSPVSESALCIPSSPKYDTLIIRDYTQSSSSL
Chain of CYP2D6 (P10635 whole entry): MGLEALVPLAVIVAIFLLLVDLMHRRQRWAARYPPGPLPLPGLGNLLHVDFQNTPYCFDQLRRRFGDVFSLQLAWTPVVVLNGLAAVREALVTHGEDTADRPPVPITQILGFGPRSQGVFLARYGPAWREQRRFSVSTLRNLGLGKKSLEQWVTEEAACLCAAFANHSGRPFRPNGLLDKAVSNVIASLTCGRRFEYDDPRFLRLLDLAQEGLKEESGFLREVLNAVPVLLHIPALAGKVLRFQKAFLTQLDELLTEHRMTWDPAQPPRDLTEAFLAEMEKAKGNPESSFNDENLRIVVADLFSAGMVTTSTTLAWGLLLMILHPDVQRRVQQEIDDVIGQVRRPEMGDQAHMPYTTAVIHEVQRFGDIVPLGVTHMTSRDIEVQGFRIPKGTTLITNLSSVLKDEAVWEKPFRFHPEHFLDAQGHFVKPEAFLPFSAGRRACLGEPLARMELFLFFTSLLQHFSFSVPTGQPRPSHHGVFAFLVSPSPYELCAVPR
Chain of Cytochrome P450 2D6 (P10635 whole entry): as above
Chain of Cytochrome P450 2C19 (P33261 whole entry): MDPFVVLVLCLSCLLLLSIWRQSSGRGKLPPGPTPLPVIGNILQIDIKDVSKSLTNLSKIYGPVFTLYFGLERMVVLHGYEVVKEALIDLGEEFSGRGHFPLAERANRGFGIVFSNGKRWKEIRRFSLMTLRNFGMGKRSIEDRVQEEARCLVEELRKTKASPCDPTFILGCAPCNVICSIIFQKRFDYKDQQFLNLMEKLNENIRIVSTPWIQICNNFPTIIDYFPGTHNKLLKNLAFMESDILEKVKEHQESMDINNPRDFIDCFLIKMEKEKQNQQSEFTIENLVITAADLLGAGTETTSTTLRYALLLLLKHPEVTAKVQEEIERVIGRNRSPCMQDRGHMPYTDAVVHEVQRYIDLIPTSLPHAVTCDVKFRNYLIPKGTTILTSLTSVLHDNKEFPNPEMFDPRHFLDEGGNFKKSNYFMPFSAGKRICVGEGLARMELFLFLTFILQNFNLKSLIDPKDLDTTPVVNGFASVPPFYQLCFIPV
Chain of CYP2C19 (P33261 whole entry): as above
Chain of Cytochrome P450 3A4 (P08684 whole entry): as the sequence (P08684 whole entry) above
Chain of Voltage-gated inwardly rectifying potassium channel KCNH2 (Q12809 whole entry): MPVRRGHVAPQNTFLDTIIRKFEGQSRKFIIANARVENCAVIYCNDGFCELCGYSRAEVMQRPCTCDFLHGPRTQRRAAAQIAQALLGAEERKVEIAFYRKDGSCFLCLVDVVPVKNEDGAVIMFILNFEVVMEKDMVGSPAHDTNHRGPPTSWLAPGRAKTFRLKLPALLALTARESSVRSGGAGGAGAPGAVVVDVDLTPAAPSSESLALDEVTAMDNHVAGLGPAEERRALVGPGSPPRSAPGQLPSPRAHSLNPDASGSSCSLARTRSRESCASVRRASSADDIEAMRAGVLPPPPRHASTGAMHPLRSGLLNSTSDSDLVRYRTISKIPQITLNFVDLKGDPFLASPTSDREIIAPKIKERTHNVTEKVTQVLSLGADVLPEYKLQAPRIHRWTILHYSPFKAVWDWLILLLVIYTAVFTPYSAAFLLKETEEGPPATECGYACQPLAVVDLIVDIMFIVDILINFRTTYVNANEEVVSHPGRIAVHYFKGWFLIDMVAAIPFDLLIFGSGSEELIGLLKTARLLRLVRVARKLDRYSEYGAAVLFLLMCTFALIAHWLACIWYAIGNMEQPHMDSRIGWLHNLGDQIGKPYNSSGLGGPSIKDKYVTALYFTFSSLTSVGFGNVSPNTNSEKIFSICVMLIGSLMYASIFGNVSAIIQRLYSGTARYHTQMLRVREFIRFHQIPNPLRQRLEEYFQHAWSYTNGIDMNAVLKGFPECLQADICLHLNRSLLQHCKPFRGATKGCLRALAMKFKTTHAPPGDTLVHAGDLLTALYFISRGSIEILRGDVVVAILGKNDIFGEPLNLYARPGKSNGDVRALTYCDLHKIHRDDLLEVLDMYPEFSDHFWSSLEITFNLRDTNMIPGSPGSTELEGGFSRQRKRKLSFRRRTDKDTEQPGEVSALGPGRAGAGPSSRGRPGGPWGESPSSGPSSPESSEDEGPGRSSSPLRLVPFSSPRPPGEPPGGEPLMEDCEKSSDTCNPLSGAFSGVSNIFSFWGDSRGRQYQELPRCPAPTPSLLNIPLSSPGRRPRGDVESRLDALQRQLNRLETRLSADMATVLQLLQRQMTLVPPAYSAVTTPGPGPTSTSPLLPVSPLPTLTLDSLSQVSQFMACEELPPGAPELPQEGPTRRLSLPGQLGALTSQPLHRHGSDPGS
Chain of Cytochrome P450 2C9 (P11712 whole entry): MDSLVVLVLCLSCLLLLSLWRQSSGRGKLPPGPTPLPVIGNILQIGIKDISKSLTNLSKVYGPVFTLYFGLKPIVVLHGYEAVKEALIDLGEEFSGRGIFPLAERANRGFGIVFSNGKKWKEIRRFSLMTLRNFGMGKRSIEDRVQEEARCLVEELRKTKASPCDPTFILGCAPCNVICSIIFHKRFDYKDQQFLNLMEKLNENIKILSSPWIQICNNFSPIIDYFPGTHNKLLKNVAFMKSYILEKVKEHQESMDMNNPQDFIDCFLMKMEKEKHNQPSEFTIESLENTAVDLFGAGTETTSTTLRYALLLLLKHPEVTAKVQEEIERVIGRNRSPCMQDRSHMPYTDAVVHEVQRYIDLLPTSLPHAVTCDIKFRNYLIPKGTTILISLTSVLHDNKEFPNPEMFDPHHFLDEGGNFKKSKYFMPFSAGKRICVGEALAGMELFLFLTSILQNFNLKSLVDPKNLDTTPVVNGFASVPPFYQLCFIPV

## O=C(c1ccccc1F)N1CCc2oc(-c3ccc(F)cn3)nc2C1
[1]
  IC50: 0.058 µM
[2]
  remaining at 0.5 h, 1 µM: > 91%
[3]
  remaining at 0.5 h, 1 µM: > 91%

## O=C(c1ccccc1)N1CCc2oc(-c3ccc(F)cn3)nc2C1
[1]
  IC50: 0.054 µM
[2]
  remaining at 0.5 h, 1 µM: 91 to 97%
[3]
  remaining at 0.5 h, 1 µM: 91 to 97%
[4]
  solubility: 16 µg/mL (≈ 49.5 µM)
Cytochrome P450 1A2
  IC50: > 50 µM
Cytochrome P450 2A6
  IC50: > 50 µM
Cytochrome P450 2C8
  IC50: > 50 µM
Cytochrome P450 2C9
  IC50: > 50 µM
Cytochrome P450 2C19
  IC50: > 50 µM
Cytochrome P450 2D6
  IC50: > 50 µM
Cytochrome P450 3A4
  IC50: > 50 µM
[5]
  Activity: Not Active
[6]
  Papp: 34.5 ×10⁻⁶ cm/s
P-gp
  efflux ratio: 1.1
[7]
  IC50: 64 µM
Salmonella typhimurium
  Activity: Non-Toxic
[8]
  half-life: 2.1 h
[9]
  half-life: 4.8 h
[10]
  clearance: 4.6 mL/min/kg
[11]
  clearance: 4.2 mL/min/kg
[12]
  Vd: 0.73 L/kg
[13]
  Vd: 1.6 L/kg
[14]
  AUC: 1290 ng·h/mL
[15]
  AUC: 37400 ng·h/mL
[16]
  AUC: 2060 ng·h/mL
[17]
  AUC: 57100 ng·h/mL
[18]
  Cmax: 2750 ng/mL
[19]
  Cmax: 3900 ng/mL
[20]
  bioavailability: 102%
[21]
  bioavailability: 139%
Rattus norvegicus [22]
  Activity: Dose-dependent effect
Rattus norvegicus [23]
  Occ: 50%
Rattus norvegicus [24]
  Activity: Active
Rattus norvegicus [25]
  Activity: Non-Toxic

## O=C(c1ccccc1)N1CCc2oc(-c3ccc(Br)cn3)nc2C1
[1]
  IC50: 0.174 µM

## O=C(c1cc(F)cc(Cl)c1)N1CCn2nc(-c3ccc(F)cn3)cc2C1
[2]
  remaining at 0.5 h, 1 µM: > 97%
[3]
  remaining at 0.5 h, 1 µM: > 97%
[4]
  solubility: 4 µg/mL (≈ 10.7 µM)
CYP1A2
  IC50 at 10 min: > 40 µM
CYP2A6
  IC50 at 10 min: > 40 µM
CYP2C8
  IC50 at 10 min: > 40 µM
CYP2C9
  IC50 at 10 min: > 40 µM
CYP2C19
  IC50 at 10 min: > 40 µM
CYP2D6
  IC50 at 10 min: > 40 µM
CYP3A4
  IC50 at 10 min: > 40 µM
[5]
  Activity: Not Active
P-gp
  efflux ratio: 1.2
